Measured values from patent publication US9255100B2 (BAYER INTELLECTUAL PROPERTY GMBH, priority 2010, dated 2016).

Target: T1, N-terminally GST-tagged human full length recombinant Mps-1 kinase (Homo sapiens, UniProt P33981)
T1 construct: N-terminally GST-tagged human full length recombinant Mps-1 kinase; purchased Invitrogen, Karslruhe, Germany PV4071
T1 sequence (P33981 1-857): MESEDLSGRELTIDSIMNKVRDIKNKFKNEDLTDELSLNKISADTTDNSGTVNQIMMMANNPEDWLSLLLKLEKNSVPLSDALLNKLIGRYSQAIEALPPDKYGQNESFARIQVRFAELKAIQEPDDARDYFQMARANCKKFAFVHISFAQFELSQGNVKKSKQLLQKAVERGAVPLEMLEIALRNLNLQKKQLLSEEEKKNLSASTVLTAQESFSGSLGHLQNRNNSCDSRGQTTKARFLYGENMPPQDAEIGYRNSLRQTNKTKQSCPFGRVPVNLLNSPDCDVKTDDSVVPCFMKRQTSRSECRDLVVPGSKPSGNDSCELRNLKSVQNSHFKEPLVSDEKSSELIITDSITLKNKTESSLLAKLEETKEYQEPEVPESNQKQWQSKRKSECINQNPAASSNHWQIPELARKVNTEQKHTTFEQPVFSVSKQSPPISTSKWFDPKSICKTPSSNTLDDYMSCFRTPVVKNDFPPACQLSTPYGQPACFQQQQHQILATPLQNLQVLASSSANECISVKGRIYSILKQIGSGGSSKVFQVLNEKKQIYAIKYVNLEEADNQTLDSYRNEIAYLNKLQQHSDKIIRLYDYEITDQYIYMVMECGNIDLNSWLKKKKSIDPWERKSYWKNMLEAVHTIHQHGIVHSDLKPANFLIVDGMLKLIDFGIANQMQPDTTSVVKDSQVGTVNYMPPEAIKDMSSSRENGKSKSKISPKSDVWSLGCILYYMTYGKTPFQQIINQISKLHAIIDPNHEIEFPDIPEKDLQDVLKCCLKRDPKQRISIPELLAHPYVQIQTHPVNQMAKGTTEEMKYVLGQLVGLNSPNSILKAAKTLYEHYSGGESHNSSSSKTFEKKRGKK
Assay: Mps-1 kinase assay (TR-FRET)
Format: biochemical
Settings: Mps1 IC50 [nM], 10 μM ATP, 1 μM peptide substrate, 60 min at 22° C.
Method in brief: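 GST-tagged full-length recombinant Mps-1 at about 1 nM final, adjusted per lot for linear range, phosphorylated a biotinylated peptide. Product bound Eu-anti-phospho(Ser/Thr) antibody over 1 h at 22° C and was read by TR-FRET to streptavidin-XLent. Compounds scored for kinase inhibition.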

An IC50 of 0.1 nM was found for `Cc1cc(-c2cnc3c(NCCC(F)(F)F)cc(Sc4ccccc4CO)nn23)ccc1C(=O)NC1CC1` [Example 270, N-cyclopropyl-4-(6-{[2-(hydroxymethyl)phenyl]sulfanyl}-8-[(3,3,3-trifluoropropyl)amino]imidazo[1,2-b]pyridazin-3-yl)-2-methylbenzamide] in this work.

An IC50 of 0.2 nM was found for `Cc1cc(-c2cnc3c(NCCN4CCCCC4)cc(Oc4cccc(F)c4)nn23)ccc1C(=O)NC1CC1` [Example 499, N-cyclopropyl-4-[6-(3-fluoro-phenoxy)-8-{[2-(piperidin-1-yl)ethyl]amino}imidazo[1,2-b]pyridazin-3-yl]-2-methyl-benzamide] in this work.

An IC50 of 0.1 nM was found for `Cc1cc(-c2cnc3c(NCCC(F)(F)F)cc(Nc4cccc(F)c4F)nn23)ccc1C(=O)NC1CC1` [Example 380, N-cyclopropyl-4-{6-[(2,3-difluorophenyl)amino]-8-[(3,3,3-trifluoropropyl)amino]imidazo[1,2-b]pyridazin-3-yl}-2-methylbenzamide] in this work.

An IC50 of 64.9 nM was found for `Cc1cc(-c2cnc3c(NCC(C)(C)O)cc(-c4cn[nH]c4)nn23)ccc1C(=O)NC1CC1` [Example 162, N-cyclopropyl-4-{8-[(2-hydroxy-2-methylpropyl)amino]-6-(1H-pyrazol-4-yl)imidazo[1,2-b]pyridazin-3-yl}-2-methylbenzamide] in this work.

An IC50 of 0.3 nM was found for `Cc1cc(-c2cnc3c(NCC4CNC4)cc(Oc4ccccc4)nn23)ccc1C(=O)NC1CC1` [Example 315, 4-{8-[(azetidin-3-ylmethyl)amino]-6-phenoxy-imidazo[1,2-b]pyridazin-3-yl}-N-cyclopropyl-2-methylbenzamide] in this work.

An IC50 of 0.6 nM was found for `Cc1ccc(F)cc1Nc1cc(NCCCC(F)(F)F)c2ncc(-c3ccc(C(=O)NC4CC4)c(C)c3)n2n1` [Example 448, N-cyclopropyl-4-{6-[(5-fluoro-2-methylphenyl)amino]-8-[(4,4,4-trifluorobutyl)amino]imidazo[1,2-b]pyridazin-3-yl}-2-methylbenzamide] in this work.

An IC50 of 8 nM was found for `Cc1cc(-c2cnc3c(NCC(F)(F)F)cc(Oc4cccc(F)c4)nn23)ccc1C(=O)NC1CC1` [Example 514, N-cyclopropyl-4-{6-(3-fluoro-phenoxy)-8-[(2,2,2-trifluoroethyl)amino]imidazo[1,2-b]pyridazin-3-yl}-2-methylbenzamide] in this work.

An IC50 of 2.2 nM was found for `Cc1cc(-c2cnc3c(NCCC(F)(F)F)cc(Oc4cccc(F)c4)nn23)ccc1C(=O)NCC(C)C` [Example 557, 4-{6-(3-fluorophenoxy)-8-[(3,3,3-trifluoropropyl)amino]imidazo[1,2-b]pyridazin-3-yl}-N-isobutyl-2-methylbenzamide] in this work.

With `CNC(=O)c1ccc(-c2cnc3c(NCC4CCOCC4)cc(Oc4ccc(F)c(F)c4)nn23)cc1C` [Example 567, 4-{6-(3,4-difluorophenoxy)-8-[(tetrahydro-2H-pyran-4-ylmethyl)amino]imidazo[1,2-b]pyridazin-3-yl}-N,2-dimethylbenzamide] the IC50 was < 1 nM.

With `CC(C)CNc1cc(-c2cccc(C(=O)NC3CC3)c2)nn2c(-c3ccc(C(=O)NC4CC4)cc3)cnc12` [Example 135, N-cyclopropyl-3-{3-[4-(cyclopropylcarbamoyl)phenyl]-8-[(2-methylpropyl)amino]imidazo[1,2-b]pyridazin-6-yl}benzamide] the IC50 was < 1 nM.

An IC50 of 80.2 nM was found for `c1cc(-c2cc(NCC3CCCCO3)c3ncc(-c4ccc(-c5cnc(C6CC6)[nH]5)cc4)n3n2)ccn1` (racemic) [Example 29, (RS) 3-[4-(2-Cyclopropyl-1H-imidazol-5-yl)phenyl]-6-(pyridin-4-yl)-N-(tetrahydro-2H-pyran-2-ylmethyl)imidazo[1,2-b]pyridazin-8-amine] in this work.

An IC50 of 0.2 nM was found for `Cc1cccc(Oc2cc(NCC(C)(C)O)c3ncc(-c4ccc(C(=O)NC5CC5)c(C)c4)n3n2)c1` [Example 97, N-cyclopropyl-4-{8-[(2-hydroxy-2-methylpropyl)amino]-6-(3-methylphenoxy)imidazo[1,2-b]pyridazin-3-yl}-2-methylbenzamide] in this work.

An IC50 of 0.1 nM was found for `Cc1cc(-c2cnc3c(NCC(C)(C)O)cc(Nc4ccccc4O)nn23)ccc1C(=O)NC1CC1` [Example 431, N-cyclopropyl-4-{8-[(2-hydroxy-2-methylpropyl)amino]-6-[(2-hydroxyphenyl)amino]imidazo[1,2-b]pyridazin-3-yl}-2-methylbenzamide] in this work.

An IC50 of 0.4 nM was found for `COc1ccc(Nc2cc(NCC(C)(C)O)c3ncc(-c4ccc(C(=O)NC5CC5)c(C)c4)n3n2)cc1` [Example 354, N-cyclopropyl-4-{8-[(2-hydroxy-2-methylpropyl)amino]-6-[(4-methoxyphenyl)amino]imidazo[1,2-b]pyridazin-3-yl}-2-methylbenzamide] in this work.

An IC50 of 0.6 nM was found for `Cc1cc(-c2cnc3c(NCC(C)(C)O)cc(Nc4ccc(F)cc4)nn23)ccc1C(=O)NC1CC1` [Example 305, N-cyclopropyl-4-{6-[(4-fluorophenyl)amino]-8-[(2-hydroxy-2-methylpropyl)amino]imidazo[1,2-b]pyridazin-3-yl}-2-methylbenzamide] in this work.

An IC50 of 90.5 nM was found for `CC=Cc1cc(NCC(C)(C)O)c2ncc(-c3ccc(-c4cnc(C5CC5)[nH]4)cc3)n2n1` (mixture of isomers) [Example 2, 1-({3-[4-(2-Cyclopropyl-1H-imidazol-5-yl)phenyl]-6-[(1E/Z)-prop-1-en-1-yl]imidazo[1,2-b]pyridazin-8-yl}amino)-2-methylpropan-2-ol] in this work.

An IC50 of 2.7 nM was found for `Cc1cc(-c2cnc3c(NCC(C)(C)O)cc(-c4ccncc4)nn23)ccc1C(=O)NC1CC1` [Example 230, N-cyclopropyl-4-{8-[(2-hydroxy-2-methylpropyl)amino]-6-(pyridin-4-yl)imidazo[1,2-b]pyridazin-3-yl}-2-methylbenzamide] in this work.

`CC(C)CNc1cc(-c2cccc(C(=O)NC(C)C)c2)nn2c(-c3ccc(C(=O)NC4CC4)cc3)cnc12` [Example 134, 3-{3-[4-(Cyclopropylcarbamoyl)phenyl]-8-[(2-methylpropyl)amino]imidazo[1,2-b]pyridazin-6-yl}-N-(propan-2-yl) benzamide] was tested, and the IC50 was < 1 nM.

An IC50 of 3.6 nM was found for `Cc1cc(-c2cnc3c(NCC(C)(C)O)cc(-c4cccc(CO)c4)nn23)ccc1C(=O)NC1CC1` [Example 153, N-cyclopropyl-4-{6-[3-(hydroxymethyl)phenyl]-8-[(2-hydroxy-2-methylpropyl)amino]imidazo[1,2-b]pyridazin-3-yl}-2-methylbenzamide] in this work.

An IC50 of 0.1 nM was found for `COc1ccc(Nc2cc(NCCC(F)(F)F)c3ncc(-c4ccc(C(=O)NC5CC5)c(C)c4)n3n2)cc1` [Example 425, N-cyclopropyl-4-{6-[(4-methoxyphenyl)amino]-8-[(3,3,3-trifluoropropyl)amino]imidazo[1,2-b]pyridazin-3-yl}-2-methylbenzamide] in this work.

An IC50 of 0.7 nM was found for `Cc1cc(-c2cnc3c(NCCC(F)(F)F)cc(Oc4cccc5ncccc45)nn23)ccc1C(=O)NC1CC1` [Example 170, N-cyclopropyl-2-methyl-4-{6-(quinolin-5-yloxy)-8-[(3,3,3-trifluoro-propyl)amino]imidazo[1,2-b]pyridazin-3-yl}benzamide] in this work.

An IC50 of 0.3 nM was found for `Cc1cc(-c2cnc3c(NCCC(F)(F)F)cc(Nc4c(O)cccc4F)nn23)ccc1C(=O)NC1CC1` [Example 478, N-cyclopropyl-4-{6-[(2-fluoro-6-hydroxyphenyl)amino]-8-[(3,3,3-tri-fluoropropyl)amino]imidazo[1,2-b]pyridazin-3-yl}-2-methylbenzamide] in this work.
